Source: ChEMBL document CHEMBL1144524, “Discovery of 7alpha-substituted dihydrotestosterones as androgen receptor pure antagonists and their structure-activity relationships” (Bioorg Med Chem, 2007)
Active and inactive are the calls of the source. No cut-off for these calls is given here.

Tests used:
[1] = target: T1, Androgen receptor (Homo sapiens) (UniProt P10275); conditions: HeLa
T1 sequence (whole entry): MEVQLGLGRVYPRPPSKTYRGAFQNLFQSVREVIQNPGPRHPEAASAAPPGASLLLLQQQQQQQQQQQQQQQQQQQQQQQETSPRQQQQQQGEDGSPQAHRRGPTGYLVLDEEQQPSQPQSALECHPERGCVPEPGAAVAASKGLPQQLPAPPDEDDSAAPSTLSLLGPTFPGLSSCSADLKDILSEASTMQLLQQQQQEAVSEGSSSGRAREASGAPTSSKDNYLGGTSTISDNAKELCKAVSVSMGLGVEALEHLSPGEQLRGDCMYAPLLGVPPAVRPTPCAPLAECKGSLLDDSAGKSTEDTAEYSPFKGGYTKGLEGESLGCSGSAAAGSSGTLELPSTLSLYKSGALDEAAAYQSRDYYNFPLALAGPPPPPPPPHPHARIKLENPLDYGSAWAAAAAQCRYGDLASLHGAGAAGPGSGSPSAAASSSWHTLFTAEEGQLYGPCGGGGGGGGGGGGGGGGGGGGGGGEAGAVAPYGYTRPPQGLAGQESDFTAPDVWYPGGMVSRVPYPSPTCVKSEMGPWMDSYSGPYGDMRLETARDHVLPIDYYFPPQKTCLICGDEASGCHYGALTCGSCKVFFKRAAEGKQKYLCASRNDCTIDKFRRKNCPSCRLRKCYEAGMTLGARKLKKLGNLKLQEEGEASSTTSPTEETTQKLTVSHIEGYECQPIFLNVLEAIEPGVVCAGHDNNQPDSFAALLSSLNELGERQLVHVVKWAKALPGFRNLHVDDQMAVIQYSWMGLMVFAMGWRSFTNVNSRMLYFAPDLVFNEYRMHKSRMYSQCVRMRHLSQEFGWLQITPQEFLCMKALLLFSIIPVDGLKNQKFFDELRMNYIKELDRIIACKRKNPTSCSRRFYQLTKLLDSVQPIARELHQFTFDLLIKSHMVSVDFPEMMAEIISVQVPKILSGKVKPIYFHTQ
Description: Agonist activity at androgen receptor expressed in HeLa cells assessed as effect on dihydrotestosterone-induced transcriptional activity by reporter gene assay

Androgen receptor [2] = target: T2, Androgen receptor (Homo sapiens, UniProt P10275); assay: biochemical
T2 sequence (P10275 whole entry): T1 sequence (whole entry)
Description: Displacement of [3H]mibolerone from androgen receptor expressed in CHOK1 cells

Androgen receptor [3] = target: T2, Androgen receptor
Description: Antagonist activity at androgen receptor expressed in HeLa cells assessed as inhibition of dihydrotestosterone-induced transcriptional activity by reporter gene assay

Mus musculus [4] = assay: Effect on subcutaneously dosed seminal vesicle wet weight in mouse; type: functional, organism-based
Mus musculus [5] = assay: Effect on po dosed seminal vesicle wet weight in mouse; type: functional, organism-based

| Compound | FI5 [1] | IC50 (Androgen receptor [2]) | IC50 (Androgen receptor [3]) | Activity (Mus musculus [4]) | Activity (Mus musculus [5]) |
| --- | --- | --- | --- | --- | --- |
| CN(Cc1ccccc1)C(=O)CCCCCCCC1C[C@H]2CC(=O)CC[C@]2(C)[C@H]2CC[C@]3(C)[C@@H](O)CC[C@H]3[C@H]12 (some centres not stated) | > 10000 nM | – | – | – | – |
| CCN(CC)C(=O)CCCCCCCC1C[C@H]2CC(=O)CC[C@]2(C)[C@H]2CC[C@]3(C)[C@@H](O)CC[C@H]3[C@H]12 (some centres not stated) | > 10000 nM | 0.12 µM | 0.3 µM | – | – |
| C[C@]12CC[C@H]3[C@@H]([C@H](CCCCCCCCCCCCC[S+]([O-])CCCC(F)(F)C(F)(F)F)CC4CC(=O)CC[C@@]43C)[C@@H]1CC[C@@H]2O (some centres not stated) | > 10000 nM | > 10 µM | 10 µM | – | – |
| CCCCN(C)C(=O)CCCCCCCCC[C@@H]1CC2CC(=O)CC[C@]2(C)[C@H]2CC[C@]3(C)[C@@H](O)CC[C@H]3[C@H]12 (some centres not stated) | 570 nM | 0.57 µM | 1.8 µM | – | – |
| CC(C)N(C)C(=O)CCCCCCCC1C[C@H]2CC(=O)CC[C@]2(C)[C@H]2CC[C@]3(C)[C@@H](O)CC[C@H]3[C@H]12 (some centres not stated) | > 10000 nM | 0.43 µM | 0.42 µM | – | – |
| C[C@]12CC[C@H]3[C@@H]([C@H](CCCCCCC[S+]([O-])CCCC(F)(F)C(F)(F)F)CC4CC(=O)CC[C@@]43C)[C@@H]1CC[C@@H]2O (some centres not stated) | 200 nM | 0.96 µM | > 10 µM | – | – |
| CCCCCCNC(=O)CCCCCCCC1C[C@H]2CC(=O)CC[C@]2(C)[C@H]2CC[C@]3(C)[C@@H](O)CC[C@H]3[C@H]12 (some centres not stated) | > 10000 nM | 2.1 µM | 6.6 µM | – | – |
| CCCCN(C)C(=O)CCCCCCC[C@@H]1CC2CC(=O)CC[C@]2(C)[C@H]2CC[C@]3(C)[C@@H](O)CC[C@H]3[C@H]12 (some centres not stated) | 280 nM | 0.28 µM | 0.34 µM | – | – |
| CNC(=O)CCCCCCCC1C[C@H]2CC(=O)CC[C@]2(C)[C@H]2CC[C@]3(C)[C@@H](O)CC[C@H]3[C@H]12 (some centres not stated) | > 10000 nM | 0.71 µM | 0.48 µM | – | – |
| CCCCN(C)C(=O)CCCCCCCC1C[C@H]2CC(=O)CC[C@]2(C)[C@H]2CC[C@]3(C)[C@@H](O)CC[C@H]3[C@H]12 (some centres not stated) | > 10000 nM | 0.28 µM | 0.34 µM | – | – |
| C[C@]12CCC(=O)C[C@@H]1CC(CCCCCCCC(N)=O)[C@@H]1[C@@H]2CC[C@]2(C)[C@@H](O)CC[C@@H]12 (some centres not stated) | 2400 nM | 0.26 µM | 0.45 µM | – | – |
| C[C@]12CC[C@H]3[C@@H]([C@H](CCCCCCCCC[S+]([O-])CCCC(F)(F)C(F)(F)F)CC4CC(=O)CC[C@@]43C)[C@@H]1CC[C@@H]2O (some centres not stated) | 490 nM | 0.11 µM | 2.9 µM | – | – |
| C[C@]12CCC(=O)C[C@@H]1CC(CCCCCCCC(=O)N1CCOCC1)[C@@H]1[C@@H]2CC[C@]2(C)[C@@H](O)CC[C@@H]12 (some centres not stated) | > 10000 nM | – | – | – | – |
| CCCCNC(=O)CCCCCCCC1C[C@H]2CC(=O)CC[C@]2(C)[C@H]2CC[C@]3(C)[C@@H](O)CC[C@H]3[C@H]12 (some centres not stated) | 1600 nM | – | 6.3 µM | – | – |
| CCCNC(=O)CCCCCCCC1C[C@H]2CC(=O)CC[C@]2(C)[C@H]2CC[C@]3(C)[C@@H](O)CC[C@H]3[C@H]12 (some centres not stated) | > 10000 nM | 1.6 µM | 1.8 µM | – | – |
| C[C@]12CCC(=O)C[C@@H]1CC(CCCCCCCC(=O)N1CCCCC1)[C@@H]1[C@@H]2CC[C@]2(C)[C@@H](O)CC[C@@H]12 (some centres not stated) | > 10000 nM | – | – | – | – |
| CN(C)C(=O)CCCCCCCC1C[C@H]2CC(=O)CC[C@]2(C)[C@H]2CC[C@]3(C)[C@@H](O)CC[C@H]3[C@H]12 (some centres not stated) | > 10000 nM | 0.26 µM | 0.19 µM | Active | Active |
| CCCCN(C)C(=O)CCCCCCCCCC[C@@H]1CC2CC(=O)CC[C@]2(C)[C@H]2CC[C@]3(C)[C@@H](O)CC[C@H]3[C@H]12 (some centres not stated) | 1900 nM | 1.9 µM | 1.3 µM | – | – |
| CCN(CC)C(=O)CCCCCCC1C[C@H]2CC(=O)CC[C@]2(C)[C@H]2CC[C@]3(C)[C@@H](O)CC[C@H]3[C@H]12 (some centres not stated) | 1700 nM | 0.33 µM | 0.53 µM | – | – |
| CCCCCCN(CCCCCC)C(=O)CCCCCCCC1C[C@H]2CC(=O)CC[C@]2(C)[C@H]2CC[C@]3(C)[C@@H](O)CC[C@H]3[C@H]12 (some centres not stated) | > 10000 nM | > 10 µM | > 10 µM | – | – |
| CN(C)C(=O)CCCCCCC1C[C@H]2CC(=O)CC[C@]2(C)[C@H]2CC[C@]3(C)[C@@H](O)CC[C@H]3[C@H]12 (some centres not stated) | 490 nM | 0.11 µM | 0.2 µM | – | – |
| CCNC(=O)CCCCCCCC1C[C@H]2CC(=O)CC[C@]2(C)[C@H]2CC[C@]3(C)[C@@H](O)CC[C@H]3[C@H]12 (some centres not stated) | > 10000 nM | 1.5 µM | 0.94 µM | – | – |
| CCCCN(C)C(=O)CCCCCCCC[C@@H]1CC2CC(=O)CC[C@]2(C)[C@H]2CC[C@]3(C)[C@@H](O)CC[C@H]3[C@H]12 (some centres not stated) | 550 nM | 0.55 µM | 3.4 µM | – | – |
| CCCCN(C)C(=O)CCCCCCCCCCC[C@@H]1CC2CC(=O)CC[C@]2(C)[C@H]2CC[C@]3(C)[C@@H](O)CC[C@H]3[C@H]12 (some centres not stated) | 9900 nM | 9.9 µM | 3.5 µM | – | – |
| C[C@]12CC[C@H]3[C@@H]([C@H](CCCCCCCCCCC[S+]([O-])CCCC(F)(F)C(F)(F)F)CC4CC(=O)CC[C@@]43C)[C@@H]1CC[C@@H]2O (some centres not stated) | > 10000 nM | > 10 µM | > 10 µM | – | – |
| C[C@]12CC[C@H]3[C@@H]([C@H](CCCCC[S+]([O-])CCCC(F)(F)C(F)(F)F)CC4CC(=O)CC[C@@]43C)[C@@H]1CC[C@@H]2O (some centres not stated) | 16 nM | 6.8 µM | > 10 µM | – | – |
| CCN(C)C(=O)CCCCCCCC1C[C@H]2CC(=O)CC[C@]2(C)[C@H]2CC[C@]3(C)[C@@H](O)CC[C@H]3[C@H]12 (some centres not stated) | > 10000 nM | 0.66 µM | 0.42 µM | – | – |
| C[C@]12CCC(=O)C[C@@H]1CC(CCCCCCCC(=O)N1CCCC1)[C@@H]1[C@@H]2CC[C@]2(C)[C@@H](O)CC[C@@H]12 (some centres not stated) | > 10000 nM | 0.35 µM | 0.3 µM | – | – |
| CCCN(C)C(=O)CCCCCCCC1C[C@H]2CC(=O)CC[C@]2(C)[C@H]2CC[C@]3(C)[C@@H](O)CC[C@H]3[C@H]12 (some centres not stated) | > 10000 nM | 0.3 µM | 1.1 µM | – | – |
